# Tests used:
# [1] = Electron donating ability (Blois' method, DPPH)
# Protocol: Electron donating ability was measured according to the Blois' method (Blois 1958). Freeze-dried powder of Sophora japonica methanol extract was dissolved in DMSO at concentrations of 100, 500 and 1,000 μg/mL. After taking 1 mL to a test tube and adding 4 mL of 4×10^−4 M DPPH solution, followed by agitating in a water bath of 60° C. for 10 seconds and allowing to stand at room temperature for 20 minutes, absorbance was measured at 525 nm. For the non-extract-treated group, 1 mL of methanol was added instead of the sample. Electron donating ability was calculated from the difference in absorbance relative to the non-treated group. The synthetic antioxidant BHT was used as positive control.
# tyrosinase [2] = assay: Intracellular tyrosinase activity; format: cell-based, C57BL/6 mouse; settings: 12.5 μg/mL, Melan-a cells
# Protocol: 4-5. […] Then, after removing the medium and washing with PBS, the cells were lysed by adding 200 μL of 1% Triton X-100 solution. The lysed cells were transferred to an e-tube and vortexed on ice with 10-minute intervals. After about 1 hour, centrifuge was carried out at 4° C. and 14,000 rpm for 20 minutes. The supernatant was subjected to tyrosinase activity measurement. Absorbance was measured using a protein assay solution (Bio-Rad, USA), and the protein quantity was calculated. Cell extract containing 40 μg of protein was mixed with the test substance to a total volume of 100 μL. After adding 100 μL of L-DOPA, followed by incubation in a 10% CO2 incubator at 37° C. for 60 minutes, absorbance was measured at 490 nm. IBMX was used as positive control.
# tyrosinase [3] = target: T1, tyrosinase (Mus musculus, UniProt P11344); assay: Activity of cell-extracted tyrosinase; format: biochemical, C57BL/6 mouse; settings: 12.5 μg/mL, Melan-a cell extract
# T1 construct: the cells were lysed by adding 200 μL of 1% Triton X-100 solution; endogenous in cells; host or cells: Melan-a cells (immortalized C57BL/6 mouse melanocytes)
# T1 sequence (P11344 19-533): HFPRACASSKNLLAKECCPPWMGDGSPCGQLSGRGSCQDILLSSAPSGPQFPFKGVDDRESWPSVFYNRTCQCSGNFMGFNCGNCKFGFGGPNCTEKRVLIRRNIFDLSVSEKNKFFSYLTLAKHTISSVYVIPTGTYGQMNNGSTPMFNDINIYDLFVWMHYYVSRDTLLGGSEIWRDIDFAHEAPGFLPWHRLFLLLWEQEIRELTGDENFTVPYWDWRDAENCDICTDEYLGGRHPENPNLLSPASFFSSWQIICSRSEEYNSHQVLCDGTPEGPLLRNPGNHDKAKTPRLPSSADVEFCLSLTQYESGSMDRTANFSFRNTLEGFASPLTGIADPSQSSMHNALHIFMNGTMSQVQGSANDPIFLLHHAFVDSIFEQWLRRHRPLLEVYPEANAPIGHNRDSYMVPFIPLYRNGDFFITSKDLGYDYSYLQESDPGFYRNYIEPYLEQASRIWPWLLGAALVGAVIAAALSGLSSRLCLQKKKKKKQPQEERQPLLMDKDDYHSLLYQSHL
# Protocol: After washing with PBS and lysing by adding 200 μL of 1% Triton X-100, the lysed cells were transferred to an e-tube and vortexed on ice with 10-minute intervals. After about 1 hour, centrifuge was carried out at 4° C. and 14,000 rpm for 20 minutes. 50 μL of the supernatant was mixed with 49 μL of 0.1 M phosphate buffer (pH 6.8) and 1 μL of Sophora japonica methanol extract at various concentrations (6.25, 12.5, 25 and 50 μg/mL). After allowing to stand for 1 hour, 100 μL of L-DOPA was added. Then, after incubation in a 10% CO2 incubator at 37° C. for 60 minutes, absorbance was measured at 490 nm. IBMX was used as positive control.
# Melan-a cells [4] = settings: mouse, 48 h
# Protocol: Melan-a cells, which are immortalized cells derived from C57BL/6 mouse, were cultured in a 37° C., 10% CO2 incubator using RPMI-1640 medium containing 10% fetal bovine serum (FBS) 1% penicillin/streptomycin (P/S) and 200 nM 12-O-tetradecanoylphorbol 13-acetate (TPA).
# The MTT assay is a typical technique of measuring cell viability. Upon absorption into cells, 3-(4,5-Dimethylthiazol-2-yl)-2,5-diphenyltetrazolium bromide (MTT) is reduced by succinate dehydronase in mitochondria to formazan. Thus, accumulation of this substance in cells is a measure of mitochondrial activity or, in a broader sense, cell activity. Melan-a cells were stabilized in RPMI-1640 medium containing 10% FBS, 1% P/S and 200 nM TPA in a 10% CO2 incubator at 37° C. for 48 hours before carrying out experiment. The Melan-a cells were seeded on a 96 well plate (0.5×10^4 cells/well) and cultured in a 10% CO2 incubator at 37° C. for 24 hours. […] After dissolving the cells in a plate shaker for 15 minutes, absorbance was measured at 540 nm using an ELISA reader. Cell proliferation was calculated according to the following equation: Cell proliferation (%)=(Absorbance of extract-treated group/Absorbance of non-extract-treated group)×100.
# tyrosinase mRNA = assay: RT-PCR, expression of tyrosinase mRNA; format: cell-based, C57BL/6 mouse; settings: 12.5 μg/mL, Melan-a cells
# Protocol: (§1) Total RNA was prepared using Trizol reagent (Invitrogen, Caylsbad, Calif.) according to the manufacturer's instructions. 5 μg of total RNA was subjected to reverse transcription with 8 μL of M-MLV RT 5× buffer, 3 μL of 10 mM dNTPs, 0.45 μL of 10,000 U RNase inhibitor, 0.3 μL of 50,000 U M-MLV reverse transcriptase (Promega, Madison, USA) and 1.5 μL of 50 pmol/μL oligo dT (Bioneer, Daejeon, Korea). Single-stranded cDNA was amplified by PCR in a reaction solution containing 4 μL of 5× green Go Taq flexi buffer, 0.4 μL of 10 mM dNTPs, 0.1 μL of 500 U Taq polymerase, 1.2 μL of 25 mM MgCl2 (Promega, Madison, USA) and 0.4 μL of 20 pmol/μL sense and antisense primers of tyrosinase, […] or β-actin. Sequences of the primers used in the PCR and expected PCR product size are shown in Table 1. β-actin was used as internal standard (51° C., 30 cycles), and test substances were tyrosinase (56° C., 28 cycles), TRP-1 (56° C., 28 cycles), TRP-2 (64° C., 28 cycles) and MITF-M (54° C., 30 cycles). The PCR product was analyzed by electrophoresis on 1.2% agarose gel.
# TRP-2 mRNA = assay: RT-PCR, expression of TRP-2 mRNA; format: cell-based, C57BL/6 mouse; settings: 12.5 μg/mL, Melan-a cells
# Protocol: as §1
# Melan-a cells [5] = assay: Melanin producing ability; format: cell-based, C57BL/6 mouse; settings: 12.5 μg/mL
# Protocol: Then, after treating again with the Sophora japonica methanol extract, the cells were further cultured for 72 hours. After dissolving melanin with 1 N NaOH solution, absorbance was measured at 490 nm. IBMX was used as positive control.
# TRP-1 mRNA = assay: RT-PCR, expression of TRP-1 mRNA; format: cell-based, C57BL/6 mouse; settings: 12.5 μg/mL, Melan-a cells, not significant
# Protocol: as §1
# MITF-M mRNA = assay: RT-PCR, expression of MITF-M mRNA; format: cell-based, C57BL/6 mouse; settings: 12.5 μg/mL, Melan-a cells
# Protocol: as §1
SMILES,"Electron donating ability, concentration dependence ([1]; 100, 500 and 1,000 μg/mL)","Electron donating ability ([1]; at 1,000 μg/mL) [%]",Higher intracellular tyrosinase activity compared with the control (tyrosinase [2]) [%],Higher activity of cell-extracted tyrosinase compared with the control (tyrosinase [3]) [%],Maximum permissible level (MPL) (Melan-a cells [4]) [µg/mL],Higher expression of tyrosinase mRNA compared with the control (tyrosinase mRNA) [%],Higher expression of TRP-2 mRNA compared with the control (TRP-2 mRNA) [%],Higher melanin content compared with the control (Melan-a cells [5]) [%],Higher expression of TRP-1 mRNA compared with the control (TRP-1 mRNA) [%],Higher expression of MITF-M mRNA compared with the control (MITF-M mRNA) [%]
"Cc1cc(C(C)(C)C)c(O)c(C(C)(C)C)c1 [BHT, 2,6-di-tert-butylated hydroxytoluene]",positive (+) concentration-dependent relationship,85.0,–,–,–,–,–,–,–,–
"CC(C)Cn1c(=O)n(C)c(=O)c2[nH]cnc21 [IBMX, 3-isobutyl-1-methylxanthine]",–,–,22.2,21.2,12.5,0.31,9,16.7,2,74

# Reference: patent US8673371B2, “Composition for treating vitiligo or canities comprising extract from sophora japonica as active ingredient” (Keimyung University Industry Academic Cooperation Foundation, priority 2010, dated 2014)
